# Experimental data taken from patent US8898047B2, “Methods for identifying inhibitors against viruses that use a class I fusion protein” (Janssen Pharmaceuticals NV, priority 2008, dated 2014).
# Experiments:
# [1] = molecular target: biotin-labeled IQN57 / FITC-labeled C45 (HR1-CTC and HR2) (Human respiratory syncytial virus A, UniProt P03420); details: 6HB-formation ELISA, FIG. 3E
# Protocol: White streptavidin-coated 96-well plates (NoAb Biodiscoveries, Mississauga, Canada) were blocked with PBS+5% BSA for 1 h and then washed three times with PBS. 10 nM biotin-labeled IQN57 dissolved in PBS+1% BSA was non-covalently bound to the surfaces of the 96-well plate for 30 min and then wells were washed again 3 times with PBS. […] Subsequently, POD-conjugated anti-FITC Fab fragment (1:5000) (Roche Applied Science, Vilvoorde, Belgium) in PBS+1% BSA was administered to the wells and incubated for 30 min. Finally, wells were washed again three times with PBS, Supersignal West Femto chemiluminescent substrate from Pierce (Perbio Science, Erembodegem, Belgium) added and signals were analyzed on a ViewLux UltraHTS microplate reader (Perkin Elmer, Zaventem, Belgium). Assay conditions without addition of biotin-labeled IQN57, FITC-labeled C45, POD-conjugated anti-FITC Fab fragment, or chemiluminescent substrate were included as negative controls or control of background signal in each of the experiments. In addition, assay conditions with saquinavir, Fuzeon® (T20), or the HIV-1-derived HR1 peptide (biotin-labeled IQN36) were used as specificity controls in each experiment.
# [2] = system: HR1-derived peptide; details: prior art (Cianci et al.); cited from earlier work
# [3] = molecular target: IQN57 (HR1 hydrophobic pocket) (Human respiratory syncytial virus A, UniProt P03420); details: 30 μM compound, 20° C., HR1 alone
# Sequence of IQN57 (HR1 hydrophobic pocket) (P03420 153-209): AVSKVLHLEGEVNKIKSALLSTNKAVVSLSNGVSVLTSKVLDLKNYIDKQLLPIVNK
# Protocol: 20 μM biotinylated-IQN57 was immobilized on a Streptavidin-certified sensor chip (GE Healthcare, Diegem, Belgium) surface in PBS at a flow rate of 10 μl/min and a contact time of 7 min. A reference flow cell was used as a control for nonspecific binding and refractive index changes. […] Several PBS+5% dimethylsulfoxide (DMSO; Sigma Aldrich NV, Bornem, Belgium) buffer blanks were injected over the course of an experiment for double referencing. The flow system was washed between sample injections with running buffer containing 50% DMSO, and the immobilized surface was regenerated with one injection of 0.2% sodiumdodecylsulfate for 30 sec. SPR biosensor data were collected on a BIAcore S51. All experiments were conducted at 20° C.
# [4] = molecular target: T1, HR1 (IQN57) and HR2 (C45) heptad-repeat peptides (Human respiratory syncytial virus A, UniProt P03420); format: binding, hRSV; details: competition assay, FIG. 3C
# T1 construct: IQ trimerisation segment (GCN4-pIQI-type coiled coil)
# T1 sequence (P03420 153-209): as above
# T1 sequence (P03420 476-520): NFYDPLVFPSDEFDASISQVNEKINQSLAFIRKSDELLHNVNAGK
# [5] = system: RSV; experiment: RSV antiviral cellular assay; format: cell-based, hRSV; details: for EC50: human respiratory syncytial virus, pEC50 = -log10 EC50 (M), RSV antiviral cellular assay, read-out: In vitro activity (pEC50) (converted); for log reduction in activity on structural modification: reduction of antiviral activity versus parent compound of the Compound Z series
# Sequence of biotin-labeled IQN57 / FITC-labeled C45 (HR1-CTC and HR2) (P03420 476-520): as above
# Sequence of biotin-labeled IQN57 / FITC-labeled C45 (HR1-CTC and HR2) (P03420 153-209): as the sequence (P03420 153-209) above
structure (smiles),measurement,setting,value
"O=c1n(Cc2nc3ccccc3n2CCCCO)c2cnccc2n1C1CC1 [BMS433771, reference compound]",Effect on interaction of HR2 (C45) with HR1-CTC (IQN57),[1],facilitate the interaction of HR2 with the HR1-CTC
same,Binding to an HR1-derived peptide alone,[2],relatively weak
same,Binding to HR1 (IQN57) by SPR,[3],do not bind to the HR1 hydrophobic pocket alone
"Cc1ccc(CCCO)c(NCc2ccc3nc(NCCCN4CCOCC4)n(Cc4nc(C)ccc4O)c3c2)c1 [Compound 1, 2-[6-{[2-(3-hydroxy-propyl)-5-methyl-phenylamino]-methyl}-2-(3-morpholin-4-yl-propylamino)-benzoimidazol-1-ylmethyl]-6-methyl-pyridin-3-ol]",Competition with compound X for binding,[4],competed for the same binding pocket
same,Effect on interaction of HR2 (C45) with HR1-CTC (IQN57),[1],facilitate the interaction of HR2 with the HR1-CTC
same,Binding to HR1 (IQN57) by SPR,[3],do not bind to the HR1 hydrophobic pocket alone
Cc1cccc(NCc2ccc3nc(NCCCN4CCOCC4)n(Cc4nc(C)ccc4O)c3c2)c1 [Compound 2],EC50,[5],2.51e-09 M
same,log reduction in activity on structural modification,[5],1.3 log
Cc1ccc(O)c(Cn2c(NCCCN3CCOCC3)nc3ccccc32)n1 [Compound 3],further log decrease in potency,"[5]; further truncation of the methylamino-toluene moiety, relative to compound 2",0.8 log
same,EC50,[5],1.58e-07 M
Cc1ccc(CCCO)c(NCc2ccc3nc(N)n(Cc4nc(C)ccc4O)c3c2)c1 [Compound 4],EC50,[5],3.16e-11 M
same,log improvement in activity,[5]; removal of the morpholinopropyl group,0.6 log
Cc1ccc(CCCO)c(NCc2ccc3ncn(Cc4nc(C)ccc4O)c3c2)c1 [Compound 5],EC50,[5],1.26e-08 M
same,log reduction in activity on structural modification,[5],2.6 log
COc1ccc(C)nc1Cn1c(NCCCN2CCOCC2)nc2ccc(CNc3cc(C)ccc3CCCO)cc21 [Compound 6],EC50,[5],2.51e-09 M
same,log reduction in activity on structural modification,[5],1.3 log
